Consider 6 molecules from US20260284005A1, “INHIBITING MITOGEN-ACTIVATED PROTEIN (MAP)/ERK KINASE (MEK)1 AND MEK2 AND RELATED METHODS OF TREATMENT” (priority 2023, published 2026).

Where two headings read alike, the source gives them in different places.

One experiment relates to CORL23 cells. The experiment in a line: 3D-TGA. In kind it is cell-based. The note with it: Homo sapiens, COR-L23, CORL23, LUN, KRAS G12V, ALK R317T. How it is done:
(§1) Cells were seeded in 3D cultures in a black-walled, clear-bottom, non-tissue culture treated, 384-well plate (3000 cells per well) using a 1:1 mixture of BME and a custom media and grown in a humidified incubator with 5% CO2 and 5% O2, which approximates capillary levels for each gas, at 37° C. […] Cells were assessed for cell proliferation using EdU cell proliferation staining. […] Cells were permeabilized with 30 μL of filtered 0.5% Triton X-100 in PBS for 20 minutes at room temperature. Samples were washed twice gently with PBS. Cells were stained utilizing click-iT chemistry by adding 20 μL of staining cocktail containing 2 mM copper sulfate, 8 μM sulfo-Cy5-azide, and 20 mg/ml ascorbic acid in PBS and incubated 30-60 minutes at room temperature in dark. […] Plates were imaged with the Molecular Devices Pico ImageXpress. Images were segmented and percentage of cells with EdU incorporation was quantified to calculate antiproliferative effects of the drugs.
(§2) Five (5)-ethynyl-2′-deoxyuridine (EdU) data was represented as percentage EdU positive cells quantified by high content imaging from the Molecular Devices ImageXpress® Pico.

The test system of a further experiment is NCI-H2087 cells. The experiment is described as follows: 3D-TGA. The note with it: Homo sapiens, NCI-H2087, LUN, NRAS Q61K, ALK S553A. In kind it is cell-based. The protocol:
as §1, §2

The subject of the next experiment is SW900 cells. The experiment in a line: 3D-TGA. The note with it: Homo sapiens, SW900, LUN, KRAS G12V, ALK G103R. In kind it is cell-based. The protocol:
as §1, §2

The test system of another experiment is MIA PaCa-2 cells. The experiment in a line: 3D-TGA. In kind it is cell-based, human. The note with it: MIA-PaCa2, PAN, KRAS G12C, read-out: IC50 in 3D-TGA, agent alone.
The next experiment deals with AsPC-1 cells. The experiment is described as follows: 3D-TGA. In kind it is cell-based, human. The note with it: Homo sapiens, ASPC1; AsPC-1, PAN, KRAS G12D; read-out: IC50 in 3D-TGA, agent alone. How it is done:
as §1, §2

The test system of a further experiment is CFPAC-1 cells. The experiment is described as follows: 3D-TGA. In kind it is cell-based, human. The note with it: CFPAC-1, PAN, KRAS G12V, read-out: IC50 in 3D-TGA, agent alone. The protocol: as §1, §2
For a further experiment, the system named is Capan-1 cells. The experiment is described as follows: 3D-TGA. In kind it is cell-based, human. The note with it: Capan-1, PAN, KRAS G12V, read-out: IC50 in 3D-TGA, agent alone. The protocol:
as §1, §2

In another experiment the test system is Capan-2 cells. The experiment is described as follows: 3D-TGA. In kind it is cell-based, human. The note with it: Capan-2, PAN, KRAS G12V, read-out: IC50 in 3D-TGA, agent alone. The protocol:
as §1, §2

A further experiment concerns HPAC cells. The experiment in a line: 3D-TGA. In kind it is cell-based, human. The note with it: PAN, KRAS G12D, read-out: IC50 in 3D-TGA, agent alone. How it is done:
as §1, §2

Another experiment deals with HPAF-II cells. The experiment is described as follows: 3D-TGA. In kind it is cell-based, human. The note with it: PAN, KRAS G12D, read-out: IC50 in 3D-TGA, agent alone. How it is done:
as §1, §2

The next experiment has as its system PANC-1 cells. The experiment is described as follows: 3D-TGA. In kind it is cell-based, human. The note with it: PANC-1, PAN, KRAS G12D, read-out: IC50 in 3D-TGA, agent alone. The protocol:
as §1, §2

The subject of the next experiment is PSN-1 cells. The experiment in a line: 3D-TGA. The note with it: PSN-1, PAN, KRAS G12R, read-out: IC50 in 3D-TGA, agent alone. In kind it is cell-based, human. How it is done:
as §1, §2

The next experiment has as its system Panc 10.05 cells. The experiment is described as follows: 3D-TGA. In kind it is cell-based, human. The note with it: Panc 10.05, PAN, KRAS G12D, read-out: IC50 in 3D-TGA, agent alone. How it is done: as §1, §2
The subject of the next experiment is PA-TU-8988S cells. The experiment is described as follows: 3D-TGA. The note with it: Homo sapiens, PaTu 8988s, PAN, KRAS G12V, read-out: IC50 in 3D-TGA, agent alone. In kind it is cell-based. How it is done: as §1, §2
The next experiment deals with Panc 03.27 cells. The experiment in a line: 3D-TGA. In kind it is cell-based. The note with it: Homo sapiens, PANC-03-27; Panc 03.27, PAN, KRAS G12V; read-out: IC50 in 3D-TGA, agent alone. The protocol:
as §1, §2

The subject of a further experiment is CL-40 cells. The experiment is described as follows: 3D-TGA. The note with it: read-out: IC50 in 3D-TGA, agent alone. In kind it is cell-based, human. The protocol:
as §1, §2

A further experiment relates to HT-29 cells. The experiment is described as follows: 3D-TGA. In kind it is cell-based, human. The protocol: as §1, §2
The subject of the next experiment is LS1034 cells. The experiment is described as follows: 3D-TGA. The note with it: LS1034, COL, KRAS A146T, read-out: IC50 in 3D-TGA, agent alone. In kind it is cell-based, human. The protocol: as §1, §2
The test system of another experiment is RCM-1 cells. The experiment is described as follows: 3D-TGA. In kind it is cell-based, human. How it is done:
as §1, §2

In a further experiment the test system is SNU-1197 cells. The experiment is described as follows: 3D-TGA. In kind it is cell-based, human. The note with it: read-out: IC50 in 3D-TGA, agent alone. The protocol:
as §1, §2

In another experiment the test system is SW626 cells. The experiment in a line: 3D-TGA. In kind it is cell-based, human. The protocol: as §1, §2
Another experiment relates to pancreatic cancer. The note with it: Phase III MPACT, 1st Line; cited from earlier work.
A further experiment relates to A549 cells. The experiment in a line: 3D-TGA. In kind it is cell-based, human. The note with it: A549, LUN, KRAS G12S; read-out: IC50 in 3D-TGA, agent alone. The protocol:
as §1, §2

The subject of a further experiment is Calu-6 cells. The experiment in a line: 3D-TGA. In kind it is cell-based, human. The note with it: Calu-6, LUN, KRAS Q61K; read-out: IC50 in 3D-TGA, agent alone. How it is done:
as §1, §2

The next experiment deals with PA-TU-8988T cells. The experiment in a line: 3D-TGA. In kind it is cell-based, human. The note with it: PAN, KRAS G12V, read-out: IC50 in 3D-TGA, agent alone. The protocol:
as §1, §2

Another experiment concerns NCI-H358 cells. The experiment in a line: 3D-TGA. In kind it is cell-based, human. The note with it: NCI-H358, LUN, KRAS G12C; read-out: IC50 in 3D-TGA, agent alone.
The mark [1] stands for this setting: read-out: IC50 in 3D-TGA Alectinib.
Where [2] appears, read: agent alone, read-out: IC50 in 3D-TGA Crizotinib.
Setting [3] is: HT-29, COL, BRAF V600E, read-out: IC50 in 3D-TGA, agent alone.
Setting [4] is: RCM-1, COL, KRAS G12V, read-out: IC50 in 3D-TGA, agent alone.
[5] abbreviates: SW626, COL, KRAS G12V, read-out: IC50 in 3D-TGA, agent alone.

Regarding `CCc1cc2c(cc1N1CCC(N3CCOCC3)CC1)C(C)(C)c1[nH]c3cc(C#N)ccc3c1C2=O` [Alectinib, alectinib], the IC50 in the experiment on CORL23 cells (setting [1]), in the experiment on NCI-H2087 cells (setting [1]) and in the experiment with SW900 cells (setting [1]) was 1000 nM in each case.

Take `O=c1[nH]cc(F)c(=O)[nH]1` [Compound 5-FU, 5-fluorouracil]: the IC50 – broadly, the concentration that inhibits the measured activity by half – with MIA PaCa-2 cells (Homo sapiens, MIA PaCa-2) came out at 1000 nM; in the experiment with AsPC-1 cells it was 1000 nM; in the experiment with CFPAC-1 cells (Homo sapiens), 1000 nM; in the experiment on Capan-1 cells (Homo sapiens), 1000 nM; with Capan-2 cells (Homo sapiens), 1000 nM; in the experiment with HPAC cells (Homo sapiens), 1000 nM. The IC50 was found to be 1000 nM with HPAF-II cells (Homo sapiens); 1000 nM with PANC-1 cells (Homo sapiens); 1000 nM in the experiment on PSN-1 cells (Homo sapiens, PSN1); 1000 nM in the experiment on Panc 10.05 cells (Homo sapiens, Panc1005); 1000 nM in the experiment with PA-TU-8988S cells; 1000 nM in the experiment on Panc 03.27 cells.

As for `C[C@@H](Oc1cc(-c2cnn(C3CCNCC3)c2)cnc1N)c1c(Cl)ccc(F)c1Cl` [Crizotinib, crizotinib], the half-maximal inhibitory concentration (IC50) in the experiment with CORL23 cells (setting [2]), in the experiment on NCI-H2087 cells (setting [2]) and in the experiment with SW900 cells (setting [2]) was 1000 nM each time.

For the molecule `Nc1ccn([C@@H]2O[C@H](CO)[C@@H](O)C2(F)F)c(=O)n1` [Gemcitabine, gemcitabine], the IC50 in the experiment with CL-40 cells (Homo sapiens) was under 50 nM; in the experiment with HT-29 cells (Homo sapiens, HT-29, read-out: IC50 in 3D-TGA, agent alone), under 50 nM; in the experiment with LS1034 cells (Homo sapiens, LS-1034), 500 to 1000 nM; in the experiment with RCM-1 cells (Homo sapiens, RCM-1, read-out: IC50 in 3D-TGA, agent alone), 500 to 1000 nM; with SNU-1197 cells (Homo sapiens), 100 to 500 nM; in the experiment with SW626 cells (Homo sapiens, SW626, read-out: IC50 in 3D-TGA, agent alone) it was 100 to 500 nM. For the same molecule, the ORR in the experiment with pancreatic cancer is 7%.

As for `O=C1[O][Pt]2([NH][C@@H]3CCCC[C@H]3[NH]2)[O]C1=O` [Oxaliplatin, oxaliplatin], the IC50 with MIA PaCa-2 cells was 1000 nM; in the experiment on A549 cells, 1000 nM; in the experiment with CFPAC-1 cells it was 1000 nM; with CL-40 cells (CL-40, COL, KRAS G12D), 100 to 500 nM; in the experiment with Calu-6 cells, 1000 nM; in the experiment with Capan-1 cells, 100 to 500 nM. Moreover, the IC50 in the experiment on Capan-2 cells, with HPAC cells, with HPAF-II cells, in the experiment on HT-29 cells (setting [3]), with LS1034 cells and in the experiment with PA-TU-8988T cells was 1000 nM throughout. The IC50 with PANC-1 cells was 1000 nM; in the experiment on PSN-1 cells, 1000 nM; with Panc 10.05 cells it was 1000 nM; in the experiment with RCM-1 cells (setting [4]) it was 500 to 1000 nM; in the experiment on SNU-1197 cells (SNU-1197, COL, KRAS G12D), 1000 nM; in the experiment with SW626 cells (setting [5]) it was 1000 nM. In the experiment on NCI-H358 cells, the IC50 was found to be 1000 nM.

For `CCc1c2c(nc3ccc(O)cc13)-c1cc3c(c(=O)n1C2)COC(=O)[C@]3(O)CC` [SN-38], the IC50 with MIA PaCa-2 cells was under 50 nM; in the experiment with CFPAC-1 cells it was under 50 nM; in the experiment with CL-40 cells (CL-40, COL, KRAS G12D) it was under 50 nM; in the experiment with Capan-1 cells, under 50 nM; with Capan-2 cells, under 50 nM; in the experiment with HPAC cells it was under 50 nM. Also, the IC50 with HPAF-II cells, in the experiment on HT-29 cells (setting [3]), in the experiment with LS1034 cells, with PA-TU-8988T cells, in the experiment on PANC-1 cells and with Panc 10.05 cells was under 50 nM throughout. Also, the half-maximal inhibitory concentration (IC50) in the experiment on RCM-1 cells (setting [4]) was under 50 nM; with SNU-1197 cells (SNU-1197, COL, KRAS G12D) it was under 50 nM; with SW626 cells (setting [5]) it was under 50 nM.
